From US9913478B2, “Organic and environmentally “green” biocide compositions and applications” (Arrowhead Center, Inc., priority 2013, dated 2018)

System: X. campestris Provencia strain
Test: growth (CFU) after 18 hours of incubation, oil compared to carvacrol (FIG. 2)
Type: cell-based, Xanthomonas campestris
Conditions: 0.01 mg/ml, oil vs carvacrol p-value=0.009
Experimental: The bars in the graph indicate the bacterial number (CFU) that was reached after 18 hours of incubation. […] Thus, a composition of biocide comprising oregano oil exerts synergistic effects, due, in part, to the multiple antimicrobial biochemicals that make up the oil (see FIG. 1).

## Cc1ccc(C(C)C)cc1O [Carvacrol, carvacrol]
  inhibition of growth, bacterial number (CFU): not as effective as the essential oil
